Measured values taken from US9150579B2, “Selective PI3K delta inhibitors” (Rhizen Pharmaceuticals SA, priority 2012, dated 2015).
“Also recorded” adds a separate entry of the source.

What was measured:
leukemic cells = assay: Assay 5: Apoptosis in leukemic cell lines (in situ Caspase 3 kit); assay type: cell-based; conditions: 24 hrs
Protocol: Apoptosis in leukemic cells was determined using an in situ Caspase 3 kit (Millipore, US) as outlined below: • Seed leukemic cells at a density of 1×10^6 cells/well in a 6 well plate • Add test compound/DMSO at desired concentrations • Incubate the plate for 24 hrs at 37° C. in 5% CO2 incubator • Collect cells in a 2 ml centrifuge tube • Add 1.6 μL of freshly prepared 5× FLICA reagent and mix cells by slightly flicking the tubes • Incubate tubes for 1 hour at 37° C. under 5% CO2 • Add 2 ml of 1× wash buffer to each tube and mix • Centrifuge cells at <400×g for 5 minutes at room temperature. • Carefully remove and discard supernatant, and gently vortex cell pellet to disrupt any cell-to-cell clumping. • Resuspend cell pellet in 300 ul of 1× wash buffer • Place 100 μL of each cell suspension into each of two wells of a black microtiter plate. Avoid creation of bubbles. • Read […] of each microwell using an excitation wavelength of 490 nm and an emission wavelength of 520 nm • Percent increase in caspase-3 activity manifested by an increase in fluorescence compared to the control blank is to be calculated.

[1] = tested on: AML patient bone marrow leukemic cells; assay: Assay 6-III: Cell proliferation analysis of AML patient bone marrow sample (MTS); assay type: cell-based, human
Protocol: 6-III: Cell proliferation analysis of AML patient bone marrow sample using MTS assay: Mononuclear cells were extracted by the Ficoll method and seeded in plates. The cells were treated by different compounds for 48 hrs and 72 hrs before they were analyzed by MTS assay following product instruction. Briefly, 20 μL of the MTS solution was added into each well containing the 100 μL cell suspension, followed by incubation for 4 hours at 37° C., in 95% humidity with presence of 5% CO2. The absorbance of 490 nm (A490) was read using SpectraMAX Plus microplate spectrophotometer.

PI3K delta = PI3K delta (Homo sapiens (Human), UniProt O00329); assay: Assay 1: Fluorescent (HTRF) determination of PI3K enzyme activity, delta; assay type: biochemical
Sequence of PI3K delta (O00329 whole entry, canonical isoform): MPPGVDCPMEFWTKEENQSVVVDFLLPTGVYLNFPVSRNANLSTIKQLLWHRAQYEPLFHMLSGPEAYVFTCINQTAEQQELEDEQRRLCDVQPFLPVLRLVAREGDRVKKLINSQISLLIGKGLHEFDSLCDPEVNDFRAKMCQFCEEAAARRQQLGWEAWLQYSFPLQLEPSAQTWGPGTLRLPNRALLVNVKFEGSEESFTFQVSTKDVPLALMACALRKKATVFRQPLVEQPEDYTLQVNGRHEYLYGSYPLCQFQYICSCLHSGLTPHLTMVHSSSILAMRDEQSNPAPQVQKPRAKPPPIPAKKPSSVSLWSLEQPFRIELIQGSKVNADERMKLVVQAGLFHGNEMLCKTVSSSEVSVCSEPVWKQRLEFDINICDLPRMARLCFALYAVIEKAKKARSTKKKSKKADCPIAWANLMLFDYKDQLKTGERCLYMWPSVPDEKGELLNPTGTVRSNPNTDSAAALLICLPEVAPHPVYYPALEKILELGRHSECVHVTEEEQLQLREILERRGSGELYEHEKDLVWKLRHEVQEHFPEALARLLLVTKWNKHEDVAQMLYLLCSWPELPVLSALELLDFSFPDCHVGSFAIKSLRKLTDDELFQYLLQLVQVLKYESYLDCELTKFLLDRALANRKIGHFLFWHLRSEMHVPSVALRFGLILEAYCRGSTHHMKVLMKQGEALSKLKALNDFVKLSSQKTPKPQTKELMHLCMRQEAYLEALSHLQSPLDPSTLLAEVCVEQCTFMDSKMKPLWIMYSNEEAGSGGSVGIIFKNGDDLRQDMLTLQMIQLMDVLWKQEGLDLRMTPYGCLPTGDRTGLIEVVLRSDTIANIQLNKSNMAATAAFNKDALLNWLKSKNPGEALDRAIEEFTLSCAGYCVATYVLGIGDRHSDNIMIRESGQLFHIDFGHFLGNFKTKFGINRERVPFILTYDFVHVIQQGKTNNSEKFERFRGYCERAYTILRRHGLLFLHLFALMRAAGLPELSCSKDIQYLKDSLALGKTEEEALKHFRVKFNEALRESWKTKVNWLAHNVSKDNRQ
Sequence of PI3K delta (P27986 whole entry partner, canonical isoform): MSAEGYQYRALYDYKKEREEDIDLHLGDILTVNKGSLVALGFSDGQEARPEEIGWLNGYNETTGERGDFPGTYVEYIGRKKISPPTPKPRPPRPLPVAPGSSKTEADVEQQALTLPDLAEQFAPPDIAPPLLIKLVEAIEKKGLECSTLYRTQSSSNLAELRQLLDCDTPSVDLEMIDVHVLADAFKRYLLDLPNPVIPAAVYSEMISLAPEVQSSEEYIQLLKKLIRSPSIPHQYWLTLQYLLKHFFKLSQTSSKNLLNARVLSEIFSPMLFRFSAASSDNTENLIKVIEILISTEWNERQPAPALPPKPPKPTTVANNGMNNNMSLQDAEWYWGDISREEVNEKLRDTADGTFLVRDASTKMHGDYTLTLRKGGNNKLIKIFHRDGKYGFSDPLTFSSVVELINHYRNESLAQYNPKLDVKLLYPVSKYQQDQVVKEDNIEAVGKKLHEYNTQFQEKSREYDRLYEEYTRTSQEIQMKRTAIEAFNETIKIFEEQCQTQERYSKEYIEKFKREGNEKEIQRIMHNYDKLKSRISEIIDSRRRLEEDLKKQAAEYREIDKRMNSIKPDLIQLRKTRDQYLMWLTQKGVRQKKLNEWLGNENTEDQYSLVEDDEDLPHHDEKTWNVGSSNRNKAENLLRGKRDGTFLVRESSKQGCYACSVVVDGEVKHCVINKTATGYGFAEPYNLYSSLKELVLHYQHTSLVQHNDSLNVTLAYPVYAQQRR
Protocol: (§1) The homogenous time resolved fluorescence (HTRF) assay allows detection of 3,4,5-triphosphate (PIP3) formed as a result of phosphorylation of phosphotidylinositol 4,5-biphosphate (PIP2) by PI3K isoforms such as α, β, γ or δ.
PI3K isoform activity for α, β, γ or δ was determined using a PI3K human HTRF™ Assay Kit (Millipore, Billerica, Mass.) with modifications. All incubations were carried out at room temperature. […] After the initial incubation, 5 μl/well of 400 μM ATP was added and incubated for an additional 30 minutes. Reaction was terminated by adding 5 μl/well stop solution (Millipore, Billerica, Mass.). Five microliters of detection mix (Millipore, Billerica, Mass.) were then added to each well and was incubated for 6-18 h in the dark. HRTF ratio was measured on a microplate reader (BMG Labtech., Germany) at an excitation wavelength of 337 nm and emission wavelengths of 665 and 620 nm with an integration time of 400 μsec.

PI3Kδ = PI3Kδ (Homo sapiens (Human), UniProt O00329); assay: Assay 4a: IgM-induced B cell proliferation assay (PI3Kδ); conditions: Cell-based
Sequence of PI3Kδ (O00329 whole entry, canonical isoform): as the sequence (O00329 whole entry, canonical isoform) above
Sequence of PI3Kδ (P27986 whole entry partner, canonical isoform): as the sequence (P27986 whole entry partner, canonical isoform) above
Protocol: Compound specificity towards PI3Kδ was determined in an IgM-induced B cell proliferation assay. B-cells isolated from blood of healthy subjects were seeded in a 96-well tissue culture plate and incubated with desired concentrations of compound for 30 min. Cells were stimulated with 5 μg/ml purified goat anti-human IgM. Growth was assessed using the 3-[4,5-dimethylthiazol-2-yl]-2,5-diphenyltetrazolium bromide (MTT) dye reduction test. For selectivity against PI3K α, β, or γ isoforms, NIH-3T3 or RAW macrophages were seeded in a 6-well tissue culture plate and incubated overnight. Complete medium was replaced with serum-free media the following day and compound at the desired concentrations were added. After 15 minutes, 20 ng/ml PDGF, 5 μM LPA, or 50 ng/ml c5a was added and incubated for an additional 10 minutes. Cells were lysed and AKT phosphorylation was determined by Western Blotting. Intensity of the bands was determined using ImageJ 1.42q (NIH, USA) and normalized to Actin (loading control).

[2] = Metabolic stability in rat liver microsomes; assay type: in vitro ADME; conditions: 1 μM test item, 60 minutes, NADPH
Protocol: (§2) Metabolic stability studies were conducted using mouse, rat, and human liver microsomes. The protocol for the studies with mouse, rat, and human liver microsomes (all from BD Gentest, USA) is provided below. In brief, 0.4 mg protein was preincubated with 2 mM NADPH (cofactor) in phosphate buffer (pH˜7.4) for 15 min at 37° C. and then added with 1 μM test item and incubated further for 60 minutes in triplicate. The reaction mixture was terminated with methanol containing an internal standard and centrifuged further to analyze the test item remaining in the supernatant by LC-MS/MS. The percent parent compound remaining was calculated in comparison with similar samples terminated at 0 minutes.

[3] = Metabolic stability in human liver microsomes; assay type: in vitro ADME
Protocol: as §2

PI3K α = PI3K α (Homo sapiens (Human), UniProt P42336); assay: Assay 1: Fluorescent (HTRF) determination of PI3K enzyme activity, alpha; assay type: biochemical
Sequence of PI3K α (P42336 whole entry): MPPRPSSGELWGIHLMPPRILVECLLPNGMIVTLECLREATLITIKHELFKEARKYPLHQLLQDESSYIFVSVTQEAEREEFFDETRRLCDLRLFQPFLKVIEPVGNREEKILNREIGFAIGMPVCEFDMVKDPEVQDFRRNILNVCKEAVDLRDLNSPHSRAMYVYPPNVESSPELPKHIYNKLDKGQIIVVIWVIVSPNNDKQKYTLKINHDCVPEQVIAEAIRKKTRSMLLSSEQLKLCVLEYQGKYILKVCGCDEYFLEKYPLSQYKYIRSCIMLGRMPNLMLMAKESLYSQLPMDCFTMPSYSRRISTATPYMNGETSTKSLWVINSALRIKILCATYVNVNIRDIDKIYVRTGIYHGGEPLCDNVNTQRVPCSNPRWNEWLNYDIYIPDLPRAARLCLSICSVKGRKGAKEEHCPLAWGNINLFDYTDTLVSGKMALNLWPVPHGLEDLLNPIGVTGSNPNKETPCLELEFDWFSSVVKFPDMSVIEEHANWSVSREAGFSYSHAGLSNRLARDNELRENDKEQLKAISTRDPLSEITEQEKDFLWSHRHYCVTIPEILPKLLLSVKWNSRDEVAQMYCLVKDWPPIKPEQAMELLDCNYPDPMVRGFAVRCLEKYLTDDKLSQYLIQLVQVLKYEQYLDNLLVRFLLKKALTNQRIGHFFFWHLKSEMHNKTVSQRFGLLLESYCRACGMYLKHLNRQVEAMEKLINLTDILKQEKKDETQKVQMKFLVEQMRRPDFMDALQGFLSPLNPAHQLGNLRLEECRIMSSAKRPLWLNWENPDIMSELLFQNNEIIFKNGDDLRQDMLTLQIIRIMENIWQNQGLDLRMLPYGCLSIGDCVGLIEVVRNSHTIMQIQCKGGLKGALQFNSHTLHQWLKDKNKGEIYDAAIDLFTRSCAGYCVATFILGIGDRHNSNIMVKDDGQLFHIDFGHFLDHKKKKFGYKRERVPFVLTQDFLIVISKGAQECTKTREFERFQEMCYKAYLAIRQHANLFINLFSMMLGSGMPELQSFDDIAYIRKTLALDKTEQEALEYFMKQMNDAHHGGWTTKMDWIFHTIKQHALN
Sequence of PI3K α (P27986 whole entry partner): as the sequence (P27986 whole entry partner, canonical isoform) above
Protocol: as §1
(§3) PI3K isoform activity for α, β, γ or δ was determined using a PI3K human HTRF™ Assay Kit (Millipore, Billerica, Mass.) with modifications. All incubations were carried out at room temperature. […] After the initial incubation, 5 μl/well of 400 μM ATP was added and incubated for an additional 30 minutes. Reaction was terminated by adding 5 μl/well stop solution (Millipore, Billerica, Mass.). Five microliters of detection mix (Millipore, Billerica, Mass.) were then added to each well and was incubated for 6-18 h in the dark.

[4] = tested on: pAKT in AML patient bone marrow leukemic cells; assay: Assay 6-II: pAKT analysis of AML patient bone marrow sample (pAKT ELISA); assay type: cell-based, human
Protocol: 6-II: pAKT analysis of AML patient bone marrow sample using pAKT ELISA kit: Mononuclear cells were extracted by the Ficoll method and seeded in plates. The cells were treated by different compounds for 48 hrs before they were analyzed by pAKT ELISA kit following the product protocol. Briefly, 1×10^6 cells were transferred into an ELISA kit well and lyzed with 10 μL 5× Cell Lysis Mix (phospho-AKT 1/2/3 (Ser473) InstantOne™ ELISA Kit, eBioscience, 85-86042). The cells were then incubated with 50 μl antibody cocktail for 1 hr at room temp. on a microplate shaker (˜300 rpm). After incubating with detection reagent, the result was measured using a SpectraMAX Plus microplate spectrophotometer set at 450 nm.

[5] = tested on: PI3Kδ signalling in basophils; assay: Assay 4: Inhibition of PI3Kδ signalling in basophils from human whole blood (anti-FcεR1 induced CD63 expression); conditions: read-out: EC50, inhibition of anti-FcεR1 mediated CD63 expression
Protocol: PI3Kδ signalling in basophils manifested by an alteration of anti-FcεR1 induced CD63 expression is a useful pharmacodynamic marker determined using the Flow2CAST® kit (Buhlmann Laboratories, Switzerland). Briefly, it involves the following steps: • Mix the anti-coagulated blood sample by inverting the venipuncture tube several times • Prepare fresh and pyrogen-free 3.5 ml polypropylene or polystyrene tubes suitable for Flow Cytometry measurements • Add 49 μl of patient's whole blood to each tube. • Add 1 μl of 10% DMSO (background) or compound (10% DMSO) to the assigned tubes and mix gently. Incubate at room temperature for 15 min • Pipette 50 μl of the Stimulation buffer (background) or anti-FcεRI Ab to each tube • Add 100 μl of Stimulation Buffer to each tube • Mix gently. […] (using an incubator will take about 10 minutes longer incubation time due to less efficient heat transfer) • Add 2 ml pre-warmed (18-28° C.) Lysing Reagent to each tube, mix gently • Incubate for 5-10 minutes at 18-28° C. • Centrifuge the tubes for 5 minutes at 500×g • Decant the supernatant by using blotting paper • Resuspend the cell pellet with 300-800 μl of Wash Buffer • Vortex gently and acquire the data on the flow cytometer within the same day. • Percent CD63 positive cells within the gated basophil population are to be determined in different treatment groups and normalized to vehicle control.

PI3K γ = PI3K γ (Homo sapiens (Human), UniProt P48736); assay: Assay 1: Fluorescent (HTRF) determination of PI3K enzyme activity, gamma; assay type: biochemical
Sequence of PI3K γ (P48736 whole entry): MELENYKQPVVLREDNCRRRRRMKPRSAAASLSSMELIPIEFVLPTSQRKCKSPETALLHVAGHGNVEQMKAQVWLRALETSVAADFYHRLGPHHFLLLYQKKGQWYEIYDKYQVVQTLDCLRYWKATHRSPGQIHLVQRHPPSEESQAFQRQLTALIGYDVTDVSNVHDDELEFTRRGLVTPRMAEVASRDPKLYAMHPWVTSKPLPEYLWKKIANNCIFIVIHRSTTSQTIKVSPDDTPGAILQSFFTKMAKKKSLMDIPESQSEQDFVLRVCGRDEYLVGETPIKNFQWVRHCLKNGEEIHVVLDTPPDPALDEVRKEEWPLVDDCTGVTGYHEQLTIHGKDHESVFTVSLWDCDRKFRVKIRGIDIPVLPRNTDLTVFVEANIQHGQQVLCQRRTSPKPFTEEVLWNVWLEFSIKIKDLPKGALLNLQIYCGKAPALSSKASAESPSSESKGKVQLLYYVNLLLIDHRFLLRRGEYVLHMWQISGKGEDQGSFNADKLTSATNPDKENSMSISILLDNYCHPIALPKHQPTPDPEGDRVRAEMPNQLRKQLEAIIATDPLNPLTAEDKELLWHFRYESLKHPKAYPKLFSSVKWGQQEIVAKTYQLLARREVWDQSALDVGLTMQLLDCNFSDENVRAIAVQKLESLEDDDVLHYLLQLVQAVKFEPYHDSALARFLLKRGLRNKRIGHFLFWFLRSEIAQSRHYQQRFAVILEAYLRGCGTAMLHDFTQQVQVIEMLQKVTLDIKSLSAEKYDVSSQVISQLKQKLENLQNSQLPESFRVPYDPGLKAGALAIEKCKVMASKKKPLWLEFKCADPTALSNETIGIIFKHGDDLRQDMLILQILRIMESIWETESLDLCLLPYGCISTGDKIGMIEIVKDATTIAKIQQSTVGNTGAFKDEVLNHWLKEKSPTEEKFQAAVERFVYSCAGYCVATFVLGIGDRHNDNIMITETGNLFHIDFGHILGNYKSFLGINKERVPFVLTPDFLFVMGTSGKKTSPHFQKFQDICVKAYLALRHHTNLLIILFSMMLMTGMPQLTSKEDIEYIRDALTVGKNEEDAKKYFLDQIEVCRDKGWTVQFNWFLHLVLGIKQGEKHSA
Protocol: as §1, §3

[6] = Metabolic stability in mouse liver microsomes; assay type: in vitro ADME; conditions: 1 μM test item, 60 minutes, NADPH
Protocol: as §2

CC(C)Oc1ccc(-c2nn([C@@H](C)c3oc4ccccc4c(=O)c3-c3cccc(F)c3)c3ncnc(N)c23)cc1F [Compound A1, (S)-2-(1-(4-amino-3-(3-fluoro-4-isopropoxyphenyl)-1H-pyrazolo[3,4-d]pyrimidin-1-yl)ethyl)-3-(3-fluorophenyl)-4H-chromen-4-one]
Caspase-3 activity (leukemic cells): dose-dependently induced Caspase-3 activity | cell viability / proliferation [1]: dose dependent reduction in proliferation; also recorded: Dose dependent reduction in cell viability | IC50 (PI3K delta): 13.8 nM | EC50 (PI3Kδ): < 50 nM | Metabolic stability in liver microsomes, Rat (percent parent compound remaining) [2]: 35.8% | Metabolic stability in liver microsomes, Human (percent parent compound remaining) ([3]; 1 μM test item, 60 minutes, NADPH): 54.5% | fold greater metabolic stability in human liver microsomes than its enantiomer ([3]; A1 vs A2, B1 vs B2): ~5 fold | inhibition at 1 µM (PI3K α): 8.91% | Fold-Selectivity PI3Kα (PI3K α; Enzyme, versus PI3Kδ): >1000 fold | AKT phosphorylation (dose dependence) [4]: dose dependent reduction | inhibition at 0.3 µM ([4]; Homo sapiens, Bone marrow cell, 0.3 μM, 48 hrs): > 50% | EC50 [5]: ≤ 100 nM | inhibition at 1 µM (PI3K γ): 80.6% | Fold-Selectivity PI3Kγ (PI3K γ; Enzyme, versus PI3Kδ): >9 fold | Metabolic stability in liver microsomes, Mouse (percent parent compound remaining) [6]: 46.1%
